Experimental data published in PubChem BioAssay AID1745844 (Carcinogenic Potency Database (CPDB), 2022).
The source made the active and inactive calls. The rule behind the calls is not given here.

Tested on: rodent lifetime carcinogenesis bioassay, tumor incidence TD50
Experiment: carcinogenic potency in animals, long-term in vivo studies, CPDB compilation (AID 1745844)

SMILES: NC(=O)NNc1ccccc1
- TD50 (mouse, strain Swiss albino, females, in drinking water, site: liver, lesion: angioma, dosed 79 weeks, study length 79 weeks): 2670 mg/kg/day (inactive)
- TD50 (mouse, strain Swiss albino, females, in drinking water, site: liver, lesion: angiosarcoma, dosed 79 weeks, study length 79 weeks): 1980 mg/kg/day (inactive)
- TD50 (mouse, strain Swiss albino, females, in drinking water, site: lung, lesion: adenocarcinoma, dosed 79 weeks, study length 79 weeks): 1250 mg/kg/day
- TD50 (mouse, strain Swiss albino, females, in drinking water, site: lung, lesion: adenoma, dosed 79 weeks, study length 79 weeks): 150 mg/kg/day
- TD50 (mouse, strain Swiss albino, females, in drinking water, site: lung, lesion: several types, types named in the paper, dosed 79 weeks, study length 79 weeks): 155 mg/kg/day
- TD50 (mouse, strain Swiss albino, males, in drinking water, site: liver, lesion: angiosarcoma, dosed 79 weeks, study length 79 weeks): 2000 mg/kg/day (inactive)
- TD50 (mouse, strain Swiss albino, males, in drinking water, site: liver, lesion: several types, types named in the paper, dosed 79 weeks, study length 79 weeks): 1790 mg/kg/day
- TD50 (mouse, strain Swiss albino, males, in drinking water, site: lung, lesion: adenoma, dosed 79 weeks, study length 79 weeks): 158 mg/kg/day
- TD50 (mouse, strain Swiss albino, males, in drinking water, site: lung, lesion: several types, types named in the paper, dosed 79 weeks, study length 79 weeks): 176 mg/kg/day

SMILES: CCOC(=O)C(O)(c1ccc(Cl)cc1)c1ccc(Cl)cc1
- TD50 (mouse, strain B6AKF1, females, oral dosing, site: any site (literature study), lesion: several types, types named in the paper, dosed 82 weeks, study length 82 weeks): 621 mg/kg/day
- TD50 (mouse, strain B6AKF1, females, oral dosing, site: lung, lesion: adenoma, dosed 82 weeks, study length 82 weeks): 621 mg/kg/day
- TD50 (mouse, strain B6AKF1, males, oral dosing, site: any site (literature study), lesion: several types, types named in the paper, dosed 82 weeks, study length 82 weeks): 72.8 mg/kg/day
- TD50 (mouse, strain B6AKF1, males, oral dosing, site: liver, lesion: hepatoma, dosed 82 weeks, study length 82 weeks): 69.8 mg/kg/day
- TD50 (mouse, strain B6C3F1, females, in feed, site: any site (literature study), lesion: several types, types named in the paper, dosed 78 weeks, study length 90 weeks): 3930 mg/kg/day
- TD50 (mouse, strain B6C3F1, females, in feed, site: liver, lesion: hepatocellular adenoma + hepatocellular carcinoma + neoplastic nodule, dosed 78 weeks, study length 90 weeks): 848 mg/kg/day
- TD50 (mouse, strain B6C3F1, females, in feed, site: liver, lesion: hepatocellular carcinoma, dosed 78 weeks, study length 90 weeks): 848 mg/kg/day
- TD50 (mouse, strain B6C3F1, females, oral dosing, site: any site (literature study), lesion: several types, types named in the paper, dosed 82 weeks, study length 82 weeks): 302 mg/kg/day
- TD50 (mouse, strain B6C3F1, females, oral dosing, site: lung, lesion: adenoma, dosed 82 weeks, study length 82 weeks): 621 mg/kg/day
- TD50 (mouse, strain B6C3F1, males, in feed, site: any site (literature study), lesion: several types, types named in the paper, dosed 78 weeks, study length 90 weeks): 256 mg/kg/day
- TD50 (mouse, strain B6C3F1, males, in feed, site: liver, lesion: hepatocellular adenoma + hepatocellular carcinoma + neoplastic nodule, dosed 78 weeks, study length 90 weeks): 235 mg/kg/day
- TD50 (mouse, strain B6C3F1, males, in feed, site: liver, lesion: hepatocellular carcinoma, dosed 78 weeks, study length 90 weeks): 235 mg/kg/day
- TD50 (mouse, strain B6C3F1, males, oral dosing, site: any site (literature study), lesion: several types, types named in the paper, dosed 82 weeks, study length 82 weeks): 31.7 mg/kg/day
- TD50 (mouse, strain B6C3F1, males, oral dosing, site: liver, lesion: hepatoma, dosed 82 weeks, study length 82 weeks): 43.8 mg/kg/day
- carcinogen call (rat, strain Carworth Farms, females, in feed, site: mammary gland, lesion: adenofibroma, dosed 104 weeks, study length 104 weeks): negative (inactive)
- TD50 (rat, strain Osborne-Mendel, females, in feed, site: adrenal gland, lesion: cortical adenoma, dosed 78 weeks, study length 110 weeks): 490 mg/kg/day (inactive)
- TD50 (rat, strain Osborne-Mendel, males, in feed, site: adrenal gland, lesion: cortical adenoma, dosed 78 weeks, study length 110 weeks): 186 mg/kg/day (inactive)
- TD50 (rat, strain Osborne-Mendel, males, in feed, site: liver, lesion: hepatocellular adenoma + hepatocellular carcinoma + neoplastic nodule, dosed 78 weeks, study length 110 weeks): 1600 mg/kg/day

SMILES: NNc1nc(-c2ccc([N+](=O)[O-])o2)cs1
- TD50 (mouse, strain Swiss, females, in feed, site: any site (literature study), lesion: several types, types named in the paper, dosed 46 weeks, study length 55 weeks): 7.57 mg/kg/day
- TD50 (mouse, strain Swiss, females, in feed, site: forestomach, lesion: squamous-cell papilloma, dosed 46 weeks, study length 55 weeks): 16.4 mg/kg/day
- TD50 (rat, strain Sprague-Dawley, females, in feed, site: any site (literature study), lesion: several types, types named in the paper, dosed 46 weeks, study length 57 weeks): 2.83 mg/kg/day
- TD50 (rat, strain Sprague-Dawley, females, in feed, site: kidney, lesion: several types, types named in the paper, dosed 46 weeks, study length 57 weeks): 36.8 mg/kg/day
- TD50 (rat, strain Sprague-Dawley, females, in feed, site: liver, lesion: cystadenoma, dosed 46 weeks, study length 66 weeks): 295 mg/kg/day
- TD50 (rat, strain Sprague-Dawley, females, in feed, site: mammary gland, lesion: adenocarcinoma, dosed 46 weeks, study length 57 weeks): 7.79 mg/kg/day
- TD50 (rat, strain Sprague-Dawley, females, in feed, site: mammary gland, lesion: adenocarcinoma, dosed 46 weeks, study length 66 weeks): 10.9 mg/kg/day
- TD50 (rat, strain Sprague-Dawley, females, in feed, site: mammary gland, lesion: adenofibroma, dosed 46 weeks, study length 57 weeks): 25.2 mg/kg/day
- TD50 (rat, strain Sprague-Dawley, females, in feed, site: mammary gland, lesion: several types, types named in the paper, dosed 46 weeks, study length 57 weeks): 2.83 mg/kg/day
- TD50 (rat, strain Sprague-Dawley, females, in feed, site: mammary gland, lesion: several types, types named in the paper, dosed 46 weeks, study length 66 weeks): 3.66 mg/kg/day
- TD50 (rat, strain Sprague-Dawley, females, in feed, site: salivary gland, lesion: adenocarcinoma, dosed 46 weeks, study length 66 weeks): 145 mg/kg/day
